System: phospho-Tau
Assay: Phospho-Tau assay using cultured rat cortical neurons (okadaic acid insult)
Type: cell-based
Conditions: pretreatment, 30 nM okadaic acid, rat cortical cultures, FIG. 14 and 15B
Description: Phospho-Tau Assay Using Cultured Rat Cortical Neurons. Primary cortical cell cultures were prepared as described previously.^2 Briefly, pregnant Sprague Dawley dams were euthanized at embryonic day 18 (E18), and the cortices of the pups were harvested. Cells were plated on poly-d-lysine coated plates at 15,000 cells per well. Cultures were maintained at 37° C. under an atmosphere containing 5% CO2. Plating media consisted of 10% heat-inactivated fetal bovine serum (FBS; Fisher) 1% penicillin-streptomycin (Fisher), and 0.5 mM glutamine (Life Technologies) in Neurobasal (Fisher). After 16-24 h, media was exchanged for replacement media consisting of IX B27 supplement (Fisher), 1% penicillin-streptomycin, 0.5 mM glutamine, and 12.5 μM glutamate in Neurobasal. On DIV6 and DIV13, 50% of media was removed, and feeding media containing 1×B27 supplement, 1% penicillin-streptomycin, 0.5 mM glutamine in Neurobasal was added with an additional 20% volume added to account for evaporation. On DIV14, the volume of each well was adjusted to 180 μL. Next, 1000× solutions of compounds in DMSO were diluted 1:100 into Neurobasal and 20 μL of the resulting solutions was added to the appropriate wells (total dilution=1:1000, 0.1% DMSO). For wells that were not treated with compounds, DMSO was diluted 1:100 into Neurobasal and 20 μL of the resulting solution was added to the appropriate wells. All treatments were randomized. After 24 h, 20 μL was removed from each well. […] After 1 h, neurons were fixed by removing 80% of the media and replacing it with a volume of 4% aqueous paraformaldehyde (ThermoFisher) equal to 50% of the working volume of the well. Then, the cells were incubated at room temperature for 15 min before the fixative was aspirated and each well was washed twice with DPBS. Cells were permeabilized using 0.2% Triton X-100 (ThermoFisher) in DPBS for 15 min at room temperature without shaking. Plates were blocked with blocking buffer (2% bovine serum albumin and […] in DPBS) overnight at 4° C. Then, plates were incubated overnight at 4° C. with gentle shaking in antibody dilution buffer (ADB) (1% bovine serum albumin and […] in DBPS) containing a chicken anti-MAP2 antibody (1:10,000; EnCor, CPCA-MAP2), guinea pig anti-Tau antibody (1:1000; Synaptic Systems), mouse anti-phosphoTau (Ser202/Thr205) antibody (1:1000; Invitrogen), and rabbit anti-phosphoTau (Ser396) antibody (1:1000; Invitrogen). Plates were washed twice with DPBS and once with ADB before being incubated for 1 h at room temperature in ADB containing an anti-chicken IgY secondary antibody conjugated to Alexa Fluor™ Plus 800 (1:1000; Invitrogen), an anti-mouse IgG secondary antibody conjugated to Alexa Fluor™ Plus 680 (1:1000; Invitrogen), an anti-guinea pig IgG secondary antibody conjugated to Alexa Fluor™ 596 (1:1000; Invitrogen), and an anti-rabbit IgG secondary antibody conjugated to Alexa Fluor™ Plus 488 (1:1000; Invitrogen). Plates were washed three times with DBPS, and after the final wash, 100 μL of DPBS was added per well before imaging on a CellInsight™ CX7 High Content Analysis imager at 20× with 12 ROIs taken per well with no bias to location and no overlap of the ROIs. Images were analyzed using Cellnomics Scan software (version 6.6.2). The compartmental analysis assay was used to measure the average intensity of each channel per field and determine the reported intensity ratios.

CN(C)CCn1ccc2ccccc21 [isoDMT, reference compound]
hyperphosphorylation of Tau (pTau accumulation) induced by okadaic acid: does not

From patent US20260284018A1, “DUAL INHIBITORS OF DYRK1A AND 5-HT2 FOR TREATING A BRAIN DISORDER” (THE REGENTS OF THE UNIVERSITY OF CALIFORNIA, priority 2023, published 2026)
